Measured values taken from ChEMBL document CHEMBL1909046, “DrugMatrix in vitro pharmacology data”.

Assays:
[1] = target: Tyrosine-protein kinase Lck (Homo sapiens, UniProt P06239); assay: DRUGMATRIX: Protein Tyrosine Kinase, LCK enzyme inhibition (substrate: Poly(Glu:Tyr)); assay type: cell-based, Insect cells; conditions: insect cells; Not Active = under 50% inhibition at 10 µM
[2] = target: T1, C-X-C chemokine receptor type 2 (Homo sapiens, UniProt P25025); assay type: cell membranes, Membrane; conditions: cho-k1; note: in other assays of this panel Not Active means under 50% inhibition at 10 µM
T1 sequence (P25025 whole entry): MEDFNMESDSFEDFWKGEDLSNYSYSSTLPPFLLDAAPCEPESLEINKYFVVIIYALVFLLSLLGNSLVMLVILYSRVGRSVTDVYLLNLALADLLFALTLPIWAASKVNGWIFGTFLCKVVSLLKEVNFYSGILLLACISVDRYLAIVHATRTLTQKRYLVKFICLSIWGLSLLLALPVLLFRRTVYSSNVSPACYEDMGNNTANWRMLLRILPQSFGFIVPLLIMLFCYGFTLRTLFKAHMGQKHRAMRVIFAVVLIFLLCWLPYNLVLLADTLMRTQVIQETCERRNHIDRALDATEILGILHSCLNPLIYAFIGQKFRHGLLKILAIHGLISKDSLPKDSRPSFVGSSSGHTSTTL

[3] = DRUGMATRIX: Glutamate, NMDA, Phencyclidine radioligand binding (ligand: [3H] TCP); assay type: cell membranes, Rattus norvegicus, Wistar, Cerebral cortex, Membrane; conditions: Not Active = under 50% inhibition at 10 µM
[4] = target: Delta-type opioid receptor (Homo sapiens, UniProt P41143); assay type: cell membranes, HEK293, Membrane; conditions: hek293; note: in other assays of this panel Not Active means under 50% inhibition at 10 µM
Chain of Delta-type opioid receptor (P41143 whole entry): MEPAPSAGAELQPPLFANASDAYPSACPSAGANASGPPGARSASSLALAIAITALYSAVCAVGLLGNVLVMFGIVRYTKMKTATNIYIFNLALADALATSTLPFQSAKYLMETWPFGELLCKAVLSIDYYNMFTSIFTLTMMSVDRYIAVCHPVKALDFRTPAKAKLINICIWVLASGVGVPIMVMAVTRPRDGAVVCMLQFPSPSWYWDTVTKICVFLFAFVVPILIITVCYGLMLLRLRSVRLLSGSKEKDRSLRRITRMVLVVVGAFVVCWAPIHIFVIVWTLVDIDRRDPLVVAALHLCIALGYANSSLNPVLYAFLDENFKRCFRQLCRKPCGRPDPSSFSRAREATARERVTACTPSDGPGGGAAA

[5] = target: Vascular endothelial growth factor receptor 1 (Homo sapiens, UniProt P17948); assay type: cell-based; conditions: huvec; note: in other assays of this panel Not Active means under 50% inhibition at 10 µM
Chain of Vascular endothelial growth factor receptor 1 (P17948 whole entry): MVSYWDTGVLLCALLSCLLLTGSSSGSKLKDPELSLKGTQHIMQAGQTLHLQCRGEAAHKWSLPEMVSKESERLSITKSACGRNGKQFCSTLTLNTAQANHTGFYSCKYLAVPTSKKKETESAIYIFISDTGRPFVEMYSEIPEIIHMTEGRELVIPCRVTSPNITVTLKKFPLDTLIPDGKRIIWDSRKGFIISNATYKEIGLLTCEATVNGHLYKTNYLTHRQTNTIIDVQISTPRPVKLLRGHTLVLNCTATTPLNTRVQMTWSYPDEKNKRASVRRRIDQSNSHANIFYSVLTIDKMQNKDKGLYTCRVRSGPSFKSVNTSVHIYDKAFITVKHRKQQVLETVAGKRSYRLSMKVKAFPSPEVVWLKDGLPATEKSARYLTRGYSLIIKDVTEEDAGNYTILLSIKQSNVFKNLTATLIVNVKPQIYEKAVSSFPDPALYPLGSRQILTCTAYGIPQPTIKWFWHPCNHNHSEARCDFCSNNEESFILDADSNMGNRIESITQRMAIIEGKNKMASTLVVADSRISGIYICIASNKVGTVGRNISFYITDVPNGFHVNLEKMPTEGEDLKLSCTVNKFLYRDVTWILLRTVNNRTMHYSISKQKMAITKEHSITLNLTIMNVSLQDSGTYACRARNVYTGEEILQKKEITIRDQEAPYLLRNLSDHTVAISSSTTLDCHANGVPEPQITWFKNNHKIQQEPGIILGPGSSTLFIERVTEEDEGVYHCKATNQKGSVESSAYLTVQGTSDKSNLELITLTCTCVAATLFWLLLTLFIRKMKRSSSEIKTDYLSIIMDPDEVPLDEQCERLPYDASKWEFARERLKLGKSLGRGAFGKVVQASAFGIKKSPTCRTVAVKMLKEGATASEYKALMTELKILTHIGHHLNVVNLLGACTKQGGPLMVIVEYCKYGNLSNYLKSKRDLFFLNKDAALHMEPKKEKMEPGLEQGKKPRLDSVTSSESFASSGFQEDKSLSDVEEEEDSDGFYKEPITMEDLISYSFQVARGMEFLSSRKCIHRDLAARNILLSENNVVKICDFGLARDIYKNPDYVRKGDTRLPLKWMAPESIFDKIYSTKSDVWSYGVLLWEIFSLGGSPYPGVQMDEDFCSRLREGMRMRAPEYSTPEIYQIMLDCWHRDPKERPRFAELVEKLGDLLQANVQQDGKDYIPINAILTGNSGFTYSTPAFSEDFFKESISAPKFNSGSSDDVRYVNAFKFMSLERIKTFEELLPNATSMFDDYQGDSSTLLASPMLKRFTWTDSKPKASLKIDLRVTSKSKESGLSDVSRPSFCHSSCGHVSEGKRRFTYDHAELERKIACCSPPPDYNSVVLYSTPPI

[6] = DRUGMATRIX: Phorbol Ester radioligand binding (ligand: [3H] PDBu); assay type: cell membranes, Mus musculus, ICR, Brain, Membrane; conditions: Not Active = under 50% inhibition at 10 µM
[7] = target: T2, C-X-C chemokine receptor type 1 (Homo sapiens, UniProt P25024); note: in other assays of this panel Not Active means under 50% inhibition at 10 µM
T2 sequence (P25024 whole entry): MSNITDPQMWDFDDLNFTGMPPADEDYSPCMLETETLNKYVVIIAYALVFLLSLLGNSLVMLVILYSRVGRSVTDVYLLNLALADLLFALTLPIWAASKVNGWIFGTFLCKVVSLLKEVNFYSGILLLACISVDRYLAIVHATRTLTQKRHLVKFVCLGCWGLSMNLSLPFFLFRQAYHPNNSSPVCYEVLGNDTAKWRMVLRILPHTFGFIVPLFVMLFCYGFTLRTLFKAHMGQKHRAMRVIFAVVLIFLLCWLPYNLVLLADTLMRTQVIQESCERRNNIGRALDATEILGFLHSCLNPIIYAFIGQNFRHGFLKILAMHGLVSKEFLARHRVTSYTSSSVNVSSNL

[8] = DRUGMATRIX: Interleukin IL-1 radioligand binding (ligand: [125I] interleukin 1beta); assay type: cell membranes, Membrane; conditions: nih3t3; Not Active = under 50% inhibition at 10 µM
[9] = target: Beta-1 adrenergic receptor (Homo sapiens, UniProt P08588); assay: DRUGMATRIX: Adrenergic beta1 radioligand binding (ligand: [125I] Cyanopindolol); assay type: cell membranes, CHO-K1, Membrane; conditions: cho-k1; Not Active = under 50% inhibition at 10 µM
[10] = target: Tyrosine-protein kinase Fyn (Homo sapiens, UniProt P06241); assay: biochemical; assay type: cell-based, Insect cells
Chain of Tyrosine-protein kinase Fyn (P06241 whole entry): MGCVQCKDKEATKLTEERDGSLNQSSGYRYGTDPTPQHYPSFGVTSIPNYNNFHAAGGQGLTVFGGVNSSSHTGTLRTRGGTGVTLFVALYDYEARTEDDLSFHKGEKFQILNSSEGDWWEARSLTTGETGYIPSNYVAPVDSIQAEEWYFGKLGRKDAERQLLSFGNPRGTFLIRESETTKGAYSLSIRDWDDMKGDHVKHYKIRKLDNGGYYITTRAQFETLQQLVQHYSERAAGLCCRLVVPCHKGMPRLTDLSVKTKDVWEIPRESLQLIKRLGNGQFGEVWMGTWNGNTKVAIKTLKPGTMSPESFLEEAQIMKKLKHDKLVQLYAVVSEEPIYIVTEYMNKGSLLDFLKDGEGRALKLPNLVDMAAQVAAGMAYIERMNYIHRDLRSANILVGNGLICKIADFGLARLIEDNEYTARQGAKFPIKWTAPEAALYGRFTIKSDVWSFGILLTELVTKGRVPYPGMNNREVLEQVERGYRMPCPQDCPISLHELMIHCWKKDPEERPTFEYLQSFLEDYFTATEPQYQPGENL

[11] = target: T3, 5-hydroxytryptamine receptor 2C (Homo sapiens, UniProt P28335); assay: DRUGMATRIX: Serotonin (5-Hydroxytryptamine) 5-HT2C radioligand binding (ligand: [3H] Mesulergine); assay type: cell membranes, CHO-K1, Membrane; conditions: cho-k1; Not Active = under 50% inhibition at 10 µM
T3 sequence (P28335 whole entry): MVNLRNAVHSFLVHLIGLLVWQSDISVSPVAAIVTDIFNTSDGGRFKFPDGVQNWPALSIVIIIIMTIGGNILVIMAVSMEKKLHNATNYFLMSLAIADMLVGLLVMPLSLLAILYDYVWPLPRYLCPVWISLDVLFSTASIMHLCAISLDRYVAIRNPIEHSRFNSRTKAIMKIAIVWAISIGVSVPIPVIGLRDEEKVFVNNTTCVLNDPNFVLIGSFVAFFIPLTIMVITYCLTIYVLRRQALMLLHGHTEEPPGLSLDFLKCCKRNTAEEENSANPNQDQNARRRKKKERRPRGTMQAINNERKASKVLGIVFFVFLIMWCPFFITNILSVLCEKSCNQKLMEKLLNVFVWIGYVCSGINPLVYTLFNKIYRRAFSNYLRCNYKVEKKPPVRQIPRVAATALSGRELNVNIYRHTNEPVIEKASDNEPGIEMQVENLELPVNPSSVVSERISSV

Neutrophil elastase = target: T4, Neutrophil elastase (Homo sapiens, UniProt P08246); assay type: tissue-based
T4 sequence (P08246 whole entry): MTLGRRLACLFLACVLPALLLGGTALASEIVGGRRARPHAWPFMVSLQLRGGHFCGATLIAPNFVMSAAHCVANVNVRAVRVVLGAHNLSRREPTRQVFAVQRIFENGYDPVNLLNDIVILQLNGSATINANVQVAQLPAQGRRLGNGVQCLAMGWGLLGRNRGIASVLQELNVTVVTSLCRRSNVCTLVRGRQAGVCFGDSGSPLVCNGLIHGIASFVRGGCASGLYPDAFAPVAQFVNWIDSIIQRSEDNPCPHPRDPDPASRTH

[12] = target: Mitogen-activated protein kinase 14 (Homo sapiens, UniProt Q16539); design: species or system Escherichia coli
[13] = DRUGMATRIX: Imidazoline I2, Central radioligand binding (ligand: [3H] Idazoxan); assay type: cell membranes, Rattus norvegicus, Wistar, Cerebral cortex, Membrane; conditions: Not Active = under 50% inhibition at 10 µM
[14] = DRUGMATRIX: Leukotriene, BLT (LTB4) radioligand binding (ligand: [3H]LTB4); assay type: cell membranes, Membrane; conditions: u-937; Not Active = under 50% inhibition at 10 µM
Cannabinoid receptor 1 = Cannabinoid receptor 1 (Homo sapiens, UniProt P21554); assay type: cell membranes, Membrane; conditions: chem-1; note: in other assays of this panel Not Active means under 50% inhibition at 10 µM
Chain of Cannabinoid receptor 1 (P21554 whole entry): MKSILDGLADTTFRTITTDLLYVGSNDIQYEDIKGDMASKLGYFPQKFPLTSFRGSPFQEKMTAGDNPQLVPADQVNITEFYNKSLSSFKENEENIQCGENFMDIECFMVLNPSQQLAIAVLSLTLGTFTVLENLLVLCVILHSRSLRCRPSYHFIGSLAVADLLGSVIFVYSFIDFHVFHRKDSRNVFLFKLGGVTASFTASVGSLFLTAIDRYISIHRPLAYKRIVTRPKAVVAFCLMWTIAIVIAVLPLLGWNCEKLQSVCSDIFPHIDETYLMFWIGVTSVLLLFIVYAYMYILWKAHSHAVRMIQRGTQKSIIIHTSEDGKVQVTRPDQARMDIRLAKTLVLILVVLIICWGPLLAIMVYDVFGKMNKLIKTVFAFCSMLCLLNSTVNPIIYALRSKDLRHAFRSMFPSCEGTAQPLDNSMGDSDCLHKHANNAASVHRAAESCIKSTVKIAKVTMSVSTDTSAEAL

[15] = target: Sigma non-opioid intracellular receptor 1 (Homo sapiens, UniProt Q99720); assay: DRUGMATRIX: Sigma1 radioligand binding (ligand: [3H] Haloperidol); assay type: cell membranes, Jurkat, Membrane; conditions: jurkat; Not Active = under 50% inhibition at 10 µM
Chain of Sigma non-opioid intracellular receptor 1 (Q99720 whole entry): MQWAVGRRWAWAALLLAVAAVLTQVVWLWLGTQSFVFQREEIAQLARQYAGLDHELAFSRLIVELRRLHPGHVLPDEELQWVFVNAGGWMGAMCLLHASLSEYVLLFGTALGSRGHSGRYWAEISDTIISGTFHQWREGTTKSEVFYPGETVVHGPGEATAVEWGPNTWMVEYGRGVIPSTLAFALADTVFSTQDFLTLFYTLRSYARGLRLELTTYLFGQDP

Insulin receptor = Insulin receptor (Rattus norvegicus, UniProt P15127); assay type: cell membranes, Wistar, Liver, Membrane; note: in other assays of this panel Not Active means under 50% inhibition at 10 µM
Chain of Insulin receptor (P15127 27-759 limits assumed): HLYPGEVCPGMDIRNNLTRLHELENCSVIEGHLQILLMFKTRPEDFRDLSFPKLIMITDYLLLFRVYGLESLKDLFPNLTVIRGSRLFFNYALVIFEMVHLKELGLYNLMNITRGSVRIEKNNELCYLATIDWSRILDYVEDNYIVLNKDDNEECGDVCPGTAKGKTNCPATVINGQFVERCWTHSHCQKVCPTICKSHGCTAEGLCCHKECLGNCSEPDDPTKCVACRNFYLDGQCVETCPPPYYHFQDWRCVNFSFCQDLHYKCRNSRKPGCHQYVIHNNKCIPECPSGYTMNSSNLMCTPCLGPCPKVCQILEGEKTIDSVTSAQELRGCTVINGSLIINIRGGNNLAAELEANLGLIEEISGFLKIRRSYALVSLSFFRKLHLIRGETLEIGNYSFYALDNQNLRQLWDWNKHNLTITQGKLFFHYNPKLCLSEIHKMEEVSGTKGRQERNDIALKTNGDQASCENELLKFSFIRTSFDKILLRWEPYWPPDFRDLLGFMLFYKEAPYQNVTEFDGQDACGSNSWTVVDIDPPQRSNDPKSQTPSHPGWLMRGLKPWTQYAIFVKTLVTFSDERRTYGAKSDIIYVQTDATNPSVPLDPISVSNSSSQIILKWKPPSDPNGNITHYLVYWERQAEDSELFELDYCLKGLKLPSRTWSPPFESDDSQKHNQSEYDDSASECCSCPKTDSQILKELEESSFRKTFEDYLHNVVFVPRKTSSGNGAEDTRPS
Chain of Insulin receptor (P15127 764-1383 limits assumed): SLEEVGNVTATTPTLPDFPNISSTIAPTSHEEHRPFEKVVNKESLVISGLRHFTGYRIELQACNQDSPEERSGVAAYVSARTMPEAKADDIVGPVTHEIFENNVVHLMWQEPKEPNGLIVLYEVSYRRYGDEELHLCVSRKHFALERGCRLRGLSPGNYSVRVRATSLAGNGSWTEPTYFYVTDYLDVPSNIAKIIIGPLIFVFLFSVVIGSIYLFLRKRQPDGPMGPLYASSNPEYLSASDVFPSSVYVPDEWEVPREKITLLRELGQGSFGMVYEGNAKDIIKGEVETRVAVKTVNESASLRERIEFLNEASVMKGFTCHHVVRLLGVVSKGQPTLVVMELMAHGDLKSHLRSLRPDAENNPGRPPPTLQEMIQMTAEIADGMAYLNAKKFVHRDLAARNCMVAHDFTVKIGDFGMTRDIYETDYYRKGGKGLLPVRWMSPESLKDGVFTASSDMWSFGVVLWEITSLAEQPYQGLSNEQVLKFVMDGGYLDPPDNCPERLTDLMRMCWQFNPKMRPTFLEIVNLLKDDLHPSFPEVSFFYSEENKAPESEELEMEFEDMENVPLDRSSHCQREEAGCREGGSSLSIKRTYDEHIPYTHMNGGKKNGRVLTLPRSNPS

Chain of Tyrosine-protein kinase Lck (P06239 whole entry): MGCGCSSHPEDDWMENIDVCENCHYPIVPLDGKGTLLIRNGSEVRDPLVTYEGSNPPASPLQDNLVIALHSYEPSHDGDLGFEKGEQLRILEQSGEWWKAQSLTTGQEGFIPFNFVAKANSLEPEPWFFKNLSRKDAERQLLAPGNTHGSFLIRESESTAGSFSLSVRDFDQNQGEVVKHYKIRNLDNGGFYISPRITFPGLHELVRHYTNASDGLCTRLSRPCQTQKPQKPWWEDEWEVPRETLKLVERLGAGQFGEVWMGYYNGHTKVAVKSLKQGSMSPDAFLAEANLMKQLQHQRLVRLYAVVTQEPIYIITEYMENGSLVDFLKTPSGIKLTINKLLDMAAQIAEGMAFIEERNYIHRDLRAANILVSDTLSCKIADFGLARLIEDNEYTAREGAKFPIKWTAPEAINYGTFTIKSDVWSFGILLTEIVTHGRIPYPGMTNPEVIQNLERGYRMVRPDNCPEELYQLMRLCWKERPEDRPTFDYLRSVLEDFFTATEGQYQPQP

Row | SMILES | IC50 [1] | IC50 [2] | IC50 [3] | Ki [3] | IC50 [4] | IC50 [5] | IC50 [6] | Ki [6] | IC50 [7] | IC50 [8] | Ki [8] | IC50 [9] | IC50 [11] | IC50 (Neutrophil elastase) | IC50 [12] | IC50 [13] | Ki [13] | IC50 [14] | Ki [14] | IC50 (Cannabinoid receptor 1) | other results
1 | C=C(C)[C@@H]1[C@H]2OC(=O)[C@@H]1[C@]1(O)C[C@H]3O[C@]34C(=O)O[C@H]2[C@]14C [PICROTOXININ] | Not Active | Not Active | Not Active | Not Active | Not Active | Not Active | Not Active | Not Active | Not Active | Not Active | Not Active | Not Active | Not Active | Not Active | Not Active | Not Active | Not Active | Not Active | Not Active | Not Active | IC50 ([10]; insect cells): Not Active; IC50 [15]: Not Active; IC50 (Insulin receptor): Not Active
2 | c1ccc2c(c1)cc1ccc3cccc4ccc2c1c34 | Not Active | Not Active | Not Active | Not Active | Not Active | Not Active | Not Active | Not Active | Not Active | Not Active | Not Active | Not Active | Not Active | Not Active | Not Active | Not Active | Not Active | Not Active | Not Active | Not Active | IC50 ([10]; read-out: IC50): 26.2 µM; IC50 [15]: Not Active; IC50 (Insulin receptor): Not Active
3 | C[C@]12CCC(=O)C=C1CC[C@@H]1[C@@H]2C(=O)C[C@@]2(C)[C@H]1CC[C@]2(O)C(=O)CO [CORTISONE] | Not Active | Not Active | Not Active | Not Active | Not Active | Not Active | Not Active | Not Active | Not Active | Not Active | Not Active | Not Active | Not Active | Not Active | Not Active | Not Active | Not Active | Not Active | Not Active | Not Active | IC50 ([10]; insect cells): Not Active; IC50 [15]: Not Active; IC50 (Insulin receptor): Not Active
4 | CC[C@@]1(O)C(=O)OCc2c1cc1n(c2=O)Cc2cc3ccccc3nc2-1 [CAMPTOTHECIN] | Not Active | Not Active | Not Active | Not Active | Not Active | Not Active | Not Active | Not Active | Not Active | Not Active | Not Active | Not Active | Not Active | Not Active | Not Active | Not Active | Not Active | Not Active | Not Active | Not Active | IC50 ([10]; insect cells): Not Active; IC50 [15]: Not Active; IC50 (Insulin receptor): Not Active
5 | COc1ccc2c(c1)c(CC(=O)OCC(=O)O)c(C)n2C(=O)c1ccc(Cl)cc1 [ACEMETACIN] | Not Active | Not Active | Not Active | Not Active | Not Active | Not Active | Not Active | Not Active | Not Active | Not Active | Not Active | Not Active | Not Active | Not Active | Not Active | Not Active | Not Active | Not Active | Not Active | Not Active | IC50 ([10]; insect cells): Not Active; IC50 [15]: Not Active; IC50 (Insulin receptor): Not Active
6 | CCCCOC(=O)c1ccc(N)cc1 [BUTAMBEN] | Not Active | Not Active | Not Active | Not Active | Not Active | Not Active | Not Active | Not Active | Not Active | Not Active | Not Active | Not Active | Not Active | Not Active | Not Active | Not Active | Not Active | Not Active | Not Active | Not Active | IC50 ([10]; insect cells): Not Active; IC50 [15]: Not Active; IC50 (Insulin receptor): Not Active
7 | CCOC(=O)c1ccc(N)cc1 [BENZOCAINE] | Not Active | Not Active | Not Active | Not Active | Not Active | Not Active | Not Active | Not Active | Not Active | Not Active | Not Active | Not Active | Not Active | Not Active | Not Active | Not Active | Not Active | Not Active | Not Active | Not Active | IC50 ([10]; insect cells): Not Active; IC50 [15]: Not Active; IC50 (Insulin receptor): Not Active
